Assay results: ChEMBL document CHEMBL1201862, “PubChem BioAssay data set” (2004)
The source made the active and inactive calls.

How the values were obtained:
[1] = biological target: T1, Sentrin-specific protease 6 (Homo sapiens, UniProt Q9GZR1); test: inhibition of human SENP6 catalytic domain – biochemical, luminescence, set 2, SAR follow-up (AID 588598); assay type: functional
T1 sequence (Q9GZR1 whole entry): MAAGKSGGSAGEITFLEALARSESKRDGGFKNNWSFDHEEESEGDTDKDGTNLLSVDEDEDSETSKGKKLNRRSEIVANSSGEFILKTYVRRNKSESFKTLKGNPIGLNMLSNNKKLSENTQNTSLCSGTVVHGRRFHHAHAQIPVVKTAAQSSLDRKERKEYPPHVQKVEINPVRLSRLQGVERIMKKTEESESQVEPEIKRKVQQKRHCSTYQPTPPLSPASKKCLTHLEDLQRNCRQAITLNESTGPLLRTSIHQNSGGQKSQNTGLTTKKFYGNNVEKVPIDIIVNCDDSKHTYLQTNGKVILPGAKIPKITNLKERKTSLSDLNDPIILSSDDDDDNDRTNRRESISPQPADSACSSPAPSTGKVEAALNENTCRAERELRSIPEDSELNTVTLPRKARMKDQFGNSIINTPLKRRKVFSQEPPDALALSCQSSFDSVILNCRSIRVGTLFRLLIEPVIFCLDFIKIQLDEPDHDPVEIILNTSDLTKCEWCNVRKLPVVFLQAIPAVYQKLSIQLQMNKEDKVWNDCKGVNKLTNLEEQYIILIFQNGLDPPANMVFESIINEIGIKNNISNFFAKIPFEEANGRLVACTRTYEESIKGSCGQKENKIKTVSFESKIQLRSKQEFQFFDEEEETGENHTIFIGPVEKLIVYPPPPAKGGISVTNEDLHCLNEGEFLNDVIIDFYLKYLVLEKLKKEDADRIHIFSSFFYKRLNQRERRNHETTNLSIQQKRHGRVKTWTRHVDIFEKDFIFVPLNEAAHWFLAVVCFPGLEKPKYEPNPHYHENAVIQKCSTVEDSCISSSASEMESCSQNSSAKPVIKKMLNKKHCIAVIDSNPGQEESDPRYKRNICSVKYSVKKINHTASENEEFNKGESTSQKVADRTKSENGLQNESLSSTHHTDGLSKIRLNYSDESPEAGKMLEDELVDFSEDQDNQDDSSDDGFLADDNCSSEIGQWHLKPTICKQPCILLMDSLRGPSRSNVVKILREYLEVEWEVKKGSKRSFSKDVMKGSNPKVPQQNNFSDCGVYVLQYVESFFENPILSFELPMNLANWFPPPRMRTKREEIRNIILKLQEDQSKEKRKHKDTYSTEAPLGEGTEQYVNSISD

[2] = biological target: T2, Sentrin-specific protease 7 (Homo sapiens, UniProt Q9BQF6); test: inhibition of human SENP7 cleavage activity – biochemical, luminescence, set 2, SAR follow-up (AID 588600); assay type: functional
T2 sequence (Q9BQF6 whole entry): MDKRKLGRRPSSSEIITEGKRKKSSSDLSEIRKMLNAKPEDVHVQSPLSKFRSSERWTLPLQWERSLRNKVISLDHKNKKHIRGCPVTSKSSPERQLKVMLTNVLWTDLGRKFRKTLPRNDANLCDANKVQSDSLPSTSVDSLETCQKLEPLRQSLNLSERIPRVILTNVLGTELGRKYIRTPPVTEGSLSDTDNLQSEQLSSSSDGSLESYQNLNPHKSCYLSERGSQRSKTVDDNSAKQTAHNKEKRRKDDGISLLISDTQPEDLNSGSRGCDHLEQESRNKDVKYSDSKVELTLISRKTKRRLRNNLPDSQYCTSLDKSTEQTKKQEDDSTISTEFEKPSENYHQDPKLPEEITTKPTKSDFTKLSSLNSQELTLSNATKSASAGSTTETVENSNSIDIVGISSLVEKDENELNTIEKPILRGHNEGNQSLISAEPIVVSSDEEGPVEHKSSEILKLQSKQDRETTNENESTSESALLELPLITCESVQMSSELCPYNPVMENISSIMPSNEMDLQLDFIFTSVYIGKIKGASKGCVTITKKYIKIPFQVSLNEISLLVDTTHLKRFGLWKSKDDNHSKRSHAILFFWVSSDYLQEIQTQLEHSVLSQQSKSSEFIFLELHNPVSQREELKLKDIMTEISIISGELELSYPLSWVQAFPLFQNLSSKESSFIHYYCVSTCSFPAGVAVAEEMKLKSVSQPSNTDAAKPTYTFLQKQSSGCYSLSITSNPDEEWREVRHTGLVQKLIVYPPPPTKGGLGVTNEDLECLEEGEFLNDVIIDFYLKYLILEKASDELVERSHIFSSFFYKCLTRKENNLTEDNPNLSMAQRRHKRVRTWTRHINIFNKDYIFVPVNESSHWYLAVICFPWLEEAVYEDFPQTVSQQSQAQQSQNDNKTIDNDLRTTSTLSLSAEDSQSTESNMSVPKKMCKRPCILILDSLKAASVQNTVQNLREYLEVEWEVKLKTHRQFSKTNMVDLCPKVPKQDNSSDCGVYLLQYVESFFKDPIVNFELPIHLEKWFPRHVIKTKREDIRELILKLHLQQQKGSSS

Caspase-3 = biological target: T3, Caspase-3 (Homo sapiens, UniProt P42574); test: inhibition of recombinant caspase-3 activity – biochemical, luminescence, set 2, selectivity assay for SENP protease inhibitor project, SAR follow-up (AID 588599); assay type: functional
T3 sequence (P42574 whole entry): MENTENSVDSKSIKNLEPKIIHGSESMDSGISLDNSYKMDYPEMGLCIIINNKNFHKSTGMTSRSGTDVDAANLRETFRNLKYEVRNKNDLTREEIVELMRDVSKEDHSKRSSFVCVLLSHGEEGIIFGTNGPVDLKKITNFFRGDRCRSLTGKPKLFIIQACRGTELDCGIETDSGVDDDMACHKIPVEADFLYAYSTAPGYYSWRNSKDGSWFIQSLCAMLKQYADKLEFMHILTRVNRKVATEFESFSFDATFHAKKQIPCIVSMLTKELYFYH

[3] = biological target: T4, Sentrin-specific protease 8 (Homo sapiens, UniProt Q96LD8); test: inhibition of sentrin protease 8 – biochemical, luminescence, set 2, SAR follow-up (AID 588601); assay type: functional
T4 sequence (Q96LD8 whole entry): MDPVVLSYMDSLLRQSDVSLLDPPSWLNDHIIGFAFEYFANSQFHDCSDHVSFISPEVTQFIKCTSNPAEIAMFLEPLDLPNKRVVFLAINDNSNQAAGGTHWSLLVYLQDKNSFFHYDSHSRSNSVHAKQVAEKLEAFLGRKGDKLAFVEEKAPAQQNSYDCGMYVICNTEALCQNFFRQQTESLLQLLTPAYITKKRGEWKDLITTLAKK

[4] = biological target: T5, High affinity choline transporter 1 (Homo sapiens, UniProt Q9GZV3); test: human choline transporter potentiators, potency – cell-based, 10-point CRC, membrane potential dye, dose response (AID 602376); assay type: functional
T5 sequence (Q9GZV3 whole entry): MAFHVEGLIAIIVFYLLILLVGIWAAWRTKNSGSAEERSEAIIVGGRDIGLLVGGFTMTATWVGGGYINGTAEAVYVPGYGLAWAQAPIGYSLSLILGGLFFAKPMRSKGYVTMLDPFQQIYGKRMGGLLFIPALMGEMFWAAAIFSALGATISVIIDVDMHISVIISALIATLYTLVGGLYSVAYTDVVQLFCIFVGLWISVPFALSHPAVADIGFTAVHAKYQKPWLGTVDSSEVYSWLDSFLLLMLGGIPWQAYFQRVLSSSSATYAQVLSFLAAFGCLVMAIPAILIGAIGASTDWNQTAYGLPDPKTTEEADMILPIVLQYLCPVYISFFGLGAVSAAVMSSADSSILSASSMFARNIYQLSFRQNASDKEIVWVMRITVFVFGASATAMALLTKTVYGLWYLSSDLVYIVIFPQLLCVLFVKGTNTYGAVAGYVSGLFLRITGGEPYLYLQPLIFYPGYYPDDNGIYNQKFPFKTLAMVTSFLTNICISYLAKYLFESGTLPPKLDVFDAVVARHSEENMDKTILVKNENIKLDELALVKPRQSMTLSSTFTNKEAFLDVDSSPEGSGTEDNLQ

[5] = biological target: T6, Ubiquitin-conjugating enzyme E2 N (Homo sapiens, UniProt P61088); assay type: functional;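 further: Dose-response confirmation in a TR-FRET assay detecting UBC13-driven polyubiquitin chain formation, inhibition measured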
T6 sequence (P61088 whole entry): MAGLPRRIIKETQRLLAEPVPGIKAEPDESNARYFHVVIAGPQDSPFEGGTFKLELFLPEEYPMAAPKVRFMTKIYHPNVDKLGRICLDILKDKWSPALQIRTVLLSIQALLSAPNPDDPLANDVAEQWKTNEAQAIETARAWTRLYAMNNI

[6] = biological target: 72 kDa type IV collagenase (Homo sapiens, UniProt P08253); test: Dose Response validation of uHTS RPN11 inhibitor hits using a MMP-2 Fluorescence assay.; assay type: functional
Prothrombin = Prothrombin (Bos taurus, UniProt P00735); test: thrombin protease inhibitors – biochemical, fluorescence polarization, uHTS hits, dose response (AID 602369); assay type: functional
[7] = biological target: 26S proteasome non-ATPase regulatory subunit 14 (Homo sapiens, UniProt O00487); test: inhibition of proteasome subunit RPN11 – biochemical, fluorescence polarization, uHTS hits, confirmation (AID 602368); assay type: functional
[8] = biological target: Multidrug resistance protein CDR1 (Candida albicans, UniProt P43071); test: inhibition of Nile Red efflux via Candida CDR1 – S. cerevisiae AD1-8u, singleplex, Cherry Pick1 hits, dose response (AID 588606); assay type: functional
INS1 [9] = test: beta-cell survival under cytokine stress – INS-1E, ATP luminescence, dry powder, dose response (AID 488844); assay type: functional, cell-based; settings: Rattus norvegicus
INS1 [10] = test: INS-1E mitochondrial potential rescue under cytokines – cell-based, JC-1 fluorescence ratio, dry powder, dose response (AID 488931); assay type: functional; settings: Rattus norvegicus
INS1 [11] = test: suppression of NO production in INS-1E cells – cell-based, Griess absorbance, dry powder, set 2, dose response (AID 488868); assay type: functional; settings: Rattus norvegicus
[12] = suppression of NO production in INS-1E cells – cell-based, Griess absorbance, dry powder, set 3, dose response (AID 488870); assay type: functional; settings: Rattus norvegicus
[13] = viability loss of HPDE-C7K cells – cell-based, fluorescence, HTS, primary screen (AID 431); assay type: functional; settings: Homo sapiens
[14] = HPDE-C7 pancreatic duct cell viability loss – fluorescence, HTS (AID 430); assay type: functional, cell-based; settings: Homo sapiens
[15] = CellTiter-Glo luminescence survival assay, SW480 colon tumor line, concentration-response curve, half-maximal inhibitory concentration (AID 1117338); assay type: functional
[16] = RKO cell viability reduction, dose response, CellTiter-Glo luminescence (AID 1117322); assay type: functional
[17] = Reduced DLD-1 viability, concentration-response, CellTiter-Glo luminescence (AID 1117352); assay type: functional
Paired box protein Pax-8 = Paired box protein Pax-8 (Homo sapiens, UniProt Q06710); test: PAX8 transcriptional activity inhibition in RMG-I – RMG-I cells, luciferase, cherry-pick, dose response (AID 687027); assay type: functional, cell-based;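 further: luciferase reporter driven by Pax8 target thyroperoxidase promoter measured by SteadyGlo luminescence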
[18] = cytotoxicity toward Colo320 cells – cell-based, CellTiter-Glo luminescence, IC50, dose response (AID 1117334); assay type: functional; settings: COLO 320
[19] = cytotoxicity toward HT-29 cells – cell-based, CellTiter-Glo luminescence, IC50, dose response (AID 1117330); assay type: functional
[20] = SNU-C1 cell viability reduction, dose response, CellTiter-Glo luminescence (AID 1117323); assay type: functional, cell-based
[21] = rise of 2N DNA cells, HeLa – IC50, dose response (AID 1117349); assay type: functional, cell-based
[22] = cytotoxicity toward HCT116 cells – cell-based, CellTiter-Glo luminescence, IC50, dose response (AID 1117332); assay type: functional; settings: HCT-116
HSP90 = HSP90 (Plasmodium falciparum 3D7, UniProt Q8IL32); assay type: functional, organism-based
[23] = biological target: Heat shock protein HSP 90-alpha (Homo sapiens, UniProt P07900); assay type: functional, organism-based
[24] = rise of 4N DNA cells, HeLa – IC50, dose response (AID 1117351); assay type: functional, cell-based

HSP90, sequence (Q8IL32 whole entry): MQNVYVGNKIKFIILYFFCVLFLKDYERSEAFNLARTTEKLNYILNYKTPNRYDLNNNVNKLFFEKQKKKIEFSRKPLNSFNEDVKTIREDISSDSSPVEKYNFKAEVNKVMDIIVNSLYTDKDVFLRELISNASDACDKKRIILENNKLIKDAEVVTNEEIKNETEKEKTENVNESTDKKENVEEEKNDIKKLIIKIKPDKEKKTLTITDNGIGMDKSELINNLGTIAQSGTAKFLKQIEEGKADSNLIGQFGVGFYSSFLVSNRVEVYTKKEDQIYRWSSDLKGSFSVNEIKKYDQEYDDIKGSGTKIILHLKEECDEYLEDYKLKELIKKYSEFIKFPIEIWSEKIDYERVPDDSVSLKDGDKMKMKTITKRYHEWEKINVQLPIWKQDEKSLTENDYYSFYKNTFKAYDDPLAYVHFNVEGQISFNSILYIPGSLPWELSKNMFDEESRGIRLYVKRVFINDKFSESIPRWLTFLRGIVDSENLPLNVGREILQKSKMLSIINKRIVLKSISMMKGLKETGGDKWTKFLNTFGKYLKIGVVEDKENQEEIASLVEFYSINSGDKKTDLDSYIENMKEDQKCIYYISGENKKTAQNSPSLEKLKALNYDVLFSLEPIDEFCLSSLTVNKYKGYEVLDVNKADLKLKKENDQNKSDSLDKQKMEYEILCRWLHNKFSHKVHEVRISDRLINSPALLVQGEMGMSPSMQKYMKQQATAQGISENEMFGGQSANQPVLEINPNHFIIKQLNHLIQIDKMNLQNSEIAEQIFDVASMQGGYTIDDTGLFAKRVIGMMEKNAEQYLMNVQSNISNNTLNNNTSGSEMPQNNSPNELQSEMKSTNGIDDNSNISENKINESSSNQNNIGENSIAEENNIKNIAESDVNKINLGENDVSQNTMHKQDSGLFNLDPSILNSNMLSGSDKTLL
Multidrug resistance protein CDR1, sequence (P43071 whole entry, looked up): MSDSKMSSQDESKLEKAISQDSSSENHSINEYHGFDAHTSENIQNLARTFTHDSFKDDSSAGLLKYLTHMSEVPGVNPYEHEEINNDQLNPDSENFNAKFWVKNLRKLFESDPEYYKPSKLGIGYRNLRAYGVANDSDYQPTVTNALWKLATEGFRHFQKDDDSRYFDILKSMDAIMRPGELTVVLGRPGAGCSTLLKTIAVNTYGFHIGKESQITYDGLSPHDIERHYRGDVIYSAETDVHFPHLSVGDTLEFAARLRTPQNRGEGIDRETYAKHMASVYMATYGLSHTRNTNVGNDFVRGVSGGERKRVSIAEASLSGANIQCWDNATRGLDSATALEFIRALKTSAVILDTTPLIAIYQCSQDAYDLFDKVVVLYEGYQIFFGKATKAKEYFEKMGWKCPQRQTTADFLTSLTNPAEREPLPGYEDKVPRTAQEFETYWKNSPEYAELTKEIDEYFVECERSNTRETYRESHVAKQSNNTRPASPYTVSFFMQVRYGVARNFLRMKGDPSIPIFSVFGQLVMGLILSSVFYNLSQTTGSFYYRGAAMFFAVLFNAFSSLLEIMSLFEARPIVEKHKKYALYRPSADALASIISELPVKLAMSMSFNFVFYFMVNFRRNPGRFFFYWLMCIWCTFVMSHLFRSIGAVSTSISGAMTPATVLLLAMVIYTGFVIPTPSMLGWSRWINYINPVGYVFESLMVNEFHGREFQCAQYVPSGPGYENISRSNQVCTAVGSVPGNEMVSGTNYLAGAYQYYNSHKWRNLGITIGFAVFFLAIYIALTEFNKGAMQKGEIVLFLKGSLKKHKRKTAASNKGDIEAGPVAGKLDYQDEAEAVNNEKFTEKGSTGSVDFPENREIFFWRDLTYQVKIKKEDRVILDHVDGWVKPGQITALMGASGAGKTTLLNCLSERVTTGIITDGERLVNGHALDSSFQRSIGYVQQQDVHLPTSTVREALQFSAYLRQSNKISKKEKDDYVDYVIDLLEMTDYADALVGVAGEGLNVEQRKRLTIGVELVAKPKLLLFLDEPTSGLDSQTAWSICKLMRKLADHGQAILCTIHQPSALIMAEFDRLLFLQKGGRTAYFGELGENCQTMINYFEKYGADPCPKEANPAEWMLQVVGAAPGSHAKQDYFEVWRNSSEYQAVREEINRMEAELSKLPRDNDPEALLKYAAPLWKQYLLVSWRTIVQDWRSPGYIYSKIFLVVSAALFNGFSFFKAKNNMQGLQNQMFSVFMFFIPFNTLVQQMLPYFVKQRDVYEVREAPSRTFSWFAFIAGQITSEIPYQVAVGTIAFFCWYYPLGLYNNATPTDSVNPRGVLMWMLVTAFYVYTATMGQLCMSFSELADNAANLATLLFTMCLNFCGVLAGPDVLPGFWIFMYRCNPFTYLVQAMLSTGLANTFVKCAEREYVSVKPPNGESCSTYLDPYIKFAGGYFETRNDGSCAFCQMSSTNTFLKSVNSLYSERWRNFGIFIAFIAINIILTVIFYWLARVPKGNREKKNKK
26S proteasome non-ATPase regulatory subunit 14, sequence (O00487 whole entry): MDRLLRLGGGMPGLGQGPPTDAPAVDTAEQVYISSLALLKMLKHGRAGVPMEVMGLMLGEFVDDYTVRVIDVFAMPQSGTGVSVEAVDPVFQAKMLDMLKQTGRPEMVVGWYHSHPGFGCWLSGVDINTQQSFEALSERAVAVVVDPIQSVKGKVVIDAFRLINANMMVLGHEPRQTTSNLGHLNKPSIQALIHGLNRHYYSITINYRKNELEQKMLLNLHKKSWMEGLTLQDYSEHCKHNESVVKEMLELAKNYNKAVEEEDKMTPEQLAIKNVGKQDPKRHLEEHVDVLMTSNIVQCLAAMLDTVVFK
72 kDa type IV collagenase, sequence (P08253 whole entry): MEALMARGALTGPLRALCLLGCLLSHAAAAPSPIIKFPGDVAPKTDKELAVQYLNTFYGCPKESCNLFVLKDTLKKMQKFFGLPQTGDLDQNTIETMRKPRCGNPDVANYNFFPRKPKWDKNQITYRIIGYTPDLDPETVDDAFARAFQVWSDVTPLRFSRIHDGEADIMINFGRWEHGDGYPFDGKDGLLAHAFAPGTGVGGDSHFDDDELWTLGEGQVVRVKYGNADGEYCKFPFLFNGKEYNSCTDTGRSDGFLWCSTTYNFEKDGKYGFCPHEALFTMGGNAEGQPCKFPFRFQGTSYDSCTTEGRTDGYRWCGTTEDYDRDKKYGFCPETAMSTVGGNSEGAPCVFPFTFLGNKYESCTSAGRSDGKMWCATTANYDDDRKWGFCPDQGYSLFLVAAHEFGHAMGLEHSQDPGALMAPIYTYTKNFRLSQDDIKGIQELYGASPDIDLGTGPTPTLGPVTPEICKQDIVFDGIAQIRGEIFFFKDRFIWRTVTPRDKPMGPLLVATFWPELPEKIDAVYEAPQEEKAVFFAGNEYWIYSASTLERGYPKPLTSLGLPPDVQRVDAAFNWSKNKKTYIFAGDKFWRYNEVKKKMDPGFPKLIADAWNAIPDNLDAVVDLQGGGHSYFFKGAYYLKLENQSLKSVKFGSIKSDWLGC
Paired box protein Pax-8, sequence (Q06710 whole entry): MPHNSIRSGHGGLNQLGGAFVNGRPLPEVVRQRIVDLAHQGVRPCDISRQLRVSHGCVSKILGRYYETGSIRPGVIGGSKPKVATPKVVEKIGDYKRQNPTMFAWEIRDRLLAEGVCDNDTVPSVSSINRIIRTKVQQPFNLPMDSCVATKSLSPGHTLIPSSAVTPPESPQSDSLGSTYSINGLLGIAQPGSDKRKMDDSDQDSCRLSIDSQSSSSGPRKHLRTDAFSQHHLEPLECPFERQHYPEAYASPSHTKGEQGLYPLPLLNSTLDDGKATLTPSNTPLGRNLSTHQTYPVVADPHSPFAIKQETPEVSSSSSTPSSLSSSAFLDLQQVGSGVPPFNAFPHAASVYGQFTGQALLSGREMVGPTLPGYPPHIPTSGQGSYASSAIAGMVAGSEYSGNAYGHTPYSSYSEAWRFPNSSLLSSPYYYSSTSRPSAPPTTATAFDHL

Cc1[nH]c2ccccc2c1C(=O)C(=O)N1CCC2(CC1)OCCO2
IC50 [1]: > 99 µM (inactive)
IC50 [2]: > 99 µM (inactive)
IC50 (Caspase-3): > 99 µM (inactive)
IC50 [3]: > 99 µM (inactive)

O=C(CCC1CCCCC1)NCCN1C2=NC[C@H](Cc3ccccc3)N2C[C@H]1Cc1ccc(O)cc1
EC50 [4]: 13.4 µM (active)
IC50 [5]: > 20 µM (inactive)

CCc1c(O)n(C2CCCCC2)c(SCC(=O)Nc2ccc(C)cc2)nc1=O
IC50 [6]: 20.6 µM (active)
IC50 (Prothrombin): 45.4 µM (active)
IC50 [7]: 38.3 µM (active)

Cc1ccc(OCc2cc(C(=O)NCC(C)(C)N3CCOCC3)no2)cc1C
EC50 [8]: 0.001 µM (active)

C[C@@H]1CN([C@@H](C)CO)C(=O)c2cccc(NC(=O)Nc3cccc(Cl)c3Cl)c2O[C@H]1CN(C)S(=O)(=O)c1ccc2c(c1)OCCO2
AC50 (INS1 [9]): 15.2 µM (active)
AC50 (INS1 [10]): 71.3 µM (active)
AC50 (INS1 [11]): 29.3 µM (active)
AC50 [12]: 68.8 µM (active)

Oc1c(I)cc(I)c2cccnc12 [IODOQUINOL]
EC50 [13]: 7.36 µM (active)
EC50 [14]: 17.1 µM (active)
IC50 [15]: 0.0036 µM (active)
IC50 [16]: 0.0227 µM (active)
IC50 [17]: 0.0178 µM (active)
AC50 (Paired box protein Pax-8): 4.87 µM (active)
IC50 [18]: 0.0213 µM (active)
IC50 [19]: 0.705 µM (active)
IC50 [20]: 0.0387 µM (active)
IC50 [21]: > 10 µM (inactive)
IC50 [22]: 0.041 µM (active)
AC50 (HSP90): 0.314 µM (active)
AC50 [23]: 0.391 µM (active)
IC50 [24]: > 10 µM (inactive)
